Source: patent US20250332143A1, “COMPOSITION COMPRISING ALOX5 INHIBITOR FOR PREVENTING OR TREATING SARCOPENIA” (PLUTO Inc., priority 2022, published 2025)

How the values were obtained:
[1] = test system: Dex-treated C2C12 myotubes; assay: Dex-induced myotube atrophy, myosin heavy chain immunostaining, myotube diameter; format: cell-based, mouse; conditions: 10 μM Dex 24 h
Procedure: C2C12 murine skeletal muscle myoblasts were obtained from Koram Biotech (Republic of Korea). The cells were maintained in DMEM growth medium supplemented with 10% FBS, 1% penicillin, and streptomycin. When myoblasts proliferated to approximately 90%, they were differentiated into muscle fibers by treating them with DMEM differentiation medium supplemented with 2% HS, 1% penicillin, and streptomycin for 96 hours. Differentiated muscle fibers were treated with 10 μM Dex for 24 hours to induce sarcopenia. To evaluate the degree of differentiation of muscle cells, differentiating myoblasts were treated with the corresponding compound in differentiation medium for 24 or 48 hours.
Muscle fibers were stained using immunochemical staining using myosin heavy chain antibody. Specifically, the muscle fibers were rinsed three times with PBS and then fixed with a 3.7% formaldehyde solution. After rinsing with PBS, a transparency process was performed with 0.2% TritonX-100 solution, and additional rinsing was performed with PBS. They were blocked with 1% bovine serum albumin solution (1% BSA in PBS-T) and incubated with primary antibody overnight at 4° C. After washing with PBS, the secondary antibody was treated for 1 hour. Afterwards, the myotubes were counterstained with 1 μM DAPI in PBS. Fluorescence images of stained myotubes in five different areas were obtained using a DMI 3000 B microscope (Leica, Germany) and analyzed using ImageJ 1.52 software (National Institutes of Health, Bethesda, MD, USA). Myotubes were classified as myosin heavy chain positive cells containing four or more nuclei, and the diameter of muscle fibers containing four or more nuclei was measured.

Alox5 = biological target: T1, Alox5 (Homo sapiens, UniProt P09917); conditions: cited from earlier work
T1 sequence (P09917 1-674): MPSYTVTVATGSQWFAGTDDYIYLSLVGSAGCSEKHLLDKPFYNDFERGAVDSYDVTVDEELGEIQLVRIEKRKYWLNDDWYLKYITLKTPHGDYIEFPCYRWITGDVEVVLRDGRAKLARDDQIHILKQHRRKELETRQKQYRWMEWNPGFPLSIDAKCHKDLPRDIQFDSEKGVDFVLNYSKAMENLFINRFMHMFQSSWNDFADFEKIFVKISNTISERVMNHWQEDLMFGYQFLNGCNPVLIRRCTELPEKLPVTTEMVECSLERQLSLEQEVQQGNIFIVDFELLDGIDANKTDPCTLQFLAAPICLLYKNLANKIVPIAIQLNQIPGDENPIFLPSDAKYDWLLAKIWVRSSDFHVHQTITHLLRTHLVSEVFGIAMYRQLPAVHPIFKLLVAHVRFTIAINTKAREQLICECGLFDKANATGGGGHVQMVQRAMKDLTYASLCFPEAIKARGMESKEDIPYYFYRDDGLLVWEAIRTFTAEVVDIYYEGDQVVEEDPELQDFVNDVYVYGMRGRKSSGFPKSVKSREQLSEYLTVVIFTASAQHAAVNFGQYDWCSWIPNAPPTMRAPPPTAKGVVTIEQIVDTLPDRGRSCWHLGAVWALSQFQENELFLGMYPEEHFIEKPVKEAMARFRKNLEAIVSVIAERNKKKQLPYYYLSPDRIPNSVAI

CC(C)OC(=O)C(C(=O)OC(C)C)=C1SC=CS1 [malotilate, Malotilate]
diameter of muscle fibers (C2C12 myotubes) ([1]; zileuton 10 µM, wedelolactone 20 μM (FIGS. 2, 3)): recovered | myotube atrophy in Dex-treated myotubes ([1]; C2C12 myotubes): inhibited the effect of Dex on myotube atrophy | Alox5 inhibition selectivity (Alox5): selective inhibitor of Alox5
